Holding throughout (type): cell-based
One experiment has as its system Helicobacter pylori (Hp). The experiment in a line: screening of antibacterial components of traditional Chinese drug, MIC against Hp. The following applies: monomer alone. The text has this:
The combination of different monomer compositions can resist bacteria, increase the action target of the composition, be conducive to improve the antibacterial effect and reduce the drug resistance of the composition. Therefore, in the present disclosure, according to the quality ratio of Zuojin pills, berberine, evolitrine, and tanshinone I are combined according to a certain quality ratio to inhibit Hp. This combination can synergistically enhance the inhibition of Hp, and is not easy to produce drug resistance, which has an extremely excellent effect on the treatment of Hp infection related diseases.

The next experiment relates to Helicobacter pylori. In words: Chessboard method, synergistic inhibitory effect of two monomers (FIC). The following applies: monomer used alone, 72 hours. As for the experimental part: The compositions 1, 2, 3, 4 and 5 are prepared according to Examples 1, 2, 3, 4 and 5, respectively. • 1.2. Strain • (1) Helicobacter pylori strains: standard strains 26695, NSH57, MSD132 and G27 are presented by Dr. Hongkai Bi of Nanjing Medical University; clinical metronidazole drug-resistant strains, clarithromycin drug-resistant strains, levofloxacin drug-resistant strains, levofloxacin and metronidazole drug-resistant strains, clarithromycin and metronidazole drug-resistant strains, levofloxacin and clarithromycin and metronidazole multi drug-resistant strains (HPBS001, HPBS002, HPBS003, and the like) are provided by the Research Center for the Prevention and Treatment of Drug Resistant Microbial Infections of Youjiang Medical University for Nationalities. • (2) Non Helicobacter pylori strains: Staphylococcus aureus, Escherichia coli, Pseudomonas aeruginosa, Acinetobacter baumannii, Klebsiella pneumoniae, Candida albicans, Enterobacter cloacae, Campylobacter jejuni, Bacillus subtilis, Proteus mirabilis, Lactobacillus campylobacter, Stenotrophomonas maltophilia, Morganella morganii, Candida tropicalis, Staphylococcus haemolyticus, Acetobacter, Saccharomyces cerevisiae, Enterobacter hormaechei well is provided by the Research Center for the Prevention and Treatment of Drug Resistant Microbial Infections of Youjiang Medical University for Nationalities. • 1.3 Main culture media and reagents: Columbia culture medium, Brain Heart Infusion Broth, nutrient agar culture medium, nutrient broth culture medium, MH culture medium, Sabouraud culture medium, standard calf serum. • 1.4 Main instruments: three gas incubator, centrifuge, microplate reader, electronic balance, and the like. • 1.5 Consumable materials: EP tube, tip, centrifuge tube, and the like. • 2. […]

Experiment [1] has as its system Helicobacter pylori G27 strain. The experiment in a line: Drug resistance test, induction with 1/4 MIC for 24 days. The text has this:
Note: In 6:1:3 group, “>” refers to greater than 46.1+7. 7+23.1. • 2.4 Drug Resistance Test of Prepared 6:1:3 Composition • (1) The drug resistance of […] is detected with Helicobacter pylori G27 strain.

The mark [2] stands for this setting: Helicobacter pylori, read-out: MIC.

Values after ≈ are worked out from the molar mass of the structure shown. Read-outs that look alike come from different tables or passages of the source.

Consider 4 molecules from patent US12310952B2, “Traditional Chinese drug monomer composition for treating Helicobacter pylori, preparation method and use thereof” (YOUJIANG MEDICAL UNIVERSITY FOR NATIONALITIES, priority 2023, dated 2025).

By MIC is commonly meant the least concentration at which growth counts as inhibited.

`Cc1coc2c1C(=O)C(=O)c1c-2ccc2c(C)cccc12` [Tanshinone I, tanshinone I]: the minimum inhibitory concentration (MIC) in the experiment with Helicobacter pylori (Hp) is 0.5 to 1 µg/mL; with Helicobacter pylori, “Tanshinone I (1 μg/mL)”.
The molecule `Cc1ncc([N+](=O)[O-])n1CCO` [metronidazole] showed a minimum inhibitory concentration (MIC) in experiment [1] (Helicobacter pylori, G27STRAIN, before induction) of 2 µg/mL (≈ 11.7 µM). In addition, the “MIC increase after induction” value in experiment [1] (after 24 days of induction with 1/4 MIC, FIG. 3) came out at 64 times.
Regarding `COc1ccc2cc3[n+](cc2c1OC)CCc1cc2c(cc1-3)OCO2` [Berberine, berberine], the figures for the MIC with Helicobacter pylori (Hp) (setting [2]) and with Helicobacter pylori (setting [2]) were 16 to 32 µg/mL and 16 µg/mL, respectively.
In the case of `COc1ccc2c(OC)c3ccoc3nc2c1` [Evolitrine, evolitrine], the MIC in the experiment with Helicobacter pylori (Hp) (setting [2]) is 16 to 32 µg/mL; in the experiment on Helicobacter pylori (setting [2]), 32 µg/mL.
